The text below walks through data of patent publication US20160058752A1, “TOPICAL […]-AFFECTIVE (TPNA) THERAPY FOR N[…]” (AFGIN PHARMA, LLC, priority 2014, published 2016).

SMILES strings stand for the structures.

One series deals with free nerve endings. Put plainly: Onset of clinical effect of TPNA therapy. In kind it is in vivo, human. The note with it: topical.
Series [1] concerns dopamine, norepinephrine, and serotonin receptors. The following applies: topical.
For series [2], the system named is local peripheral and generalized pain. Put plainly: Nuchal (BONATH) application of compounded opioids for pain relief in patients. The note with it: patients tapering off oral narcotics, nuchal delivery as only pain therapy. The source says:
Previously described has is the “nuchal” (back of the neck at the hairline, or “BONATH”) application of triptans (Migraderm using sumatriptan) for migraine headache, tizanidine (Tizoderm) for cervical spasm and tension headache; and, apomorphine for the Parkinson's disease symptoms of tremor, rigidity, speech difficulties, and other “non-motor” symptoms.

The conditions of series [3]: after topical application in cold cream; cited from earlier work.

As to `CN1CCc2cccc3c2[C@H]1Cc1ccc(O)c(O)c1-3` [apomorphine], the “onset of clinical effect” value with free nerve endings was 10 to 15 min. The “effect on symptoms of neuropathic pain and other symptoms of nerve dysfunction” value in series [1] was “treat symptoms of neuropathic pain”. Turning to `NCCc1ccc(O)c(O)c1` [dopamine], the “effect on symptoms of neuropathic pain and other symptoms of nerve dysfunction” value in series [1] is on record as “treat symptoms of neuropathic pain”. Turning to `CN1CC[C@]23c4c5ccc(O)c4O[C@H]2[C@@H](O)C=C[C@H]3[C@H]1C5.O=S(=O)(O)O` [morphine sulfate], the narcotic withdrawal symptoms entry in series [2] is “no significant narcotic withdrawal symptoms”.

`CN1CC[C@]23c4c5ccc(O)c4O[C@H]2[C@@H](O)C=C[C@H]3[C@H]1C5` [morphine]: the “morphine levels in blood or urine” value in series [3] is “not detected”.

As for `COc1cccc(C2(O)CCCCC2CN(C)C)c1` (stereo not drawn) [tramadol], the narcotic withdrawal symptoms result in series [2] was “no significant narcotic withdrawal symptoms”.
